IC50 data for 47 compounds are collected here from patent US11866433B2, “Diarylthiohydantoin compound as androgen receptor antagonist” (CHIA TAI TIANQING PHARMACEUTICAL GROUP CO., LTD., priority 2017, dated 2024).

Some results are limits rather than exact numbers.

The assay has as its target T1, androgen receptor (AR) (Homo sapiens, UniProt P10275).
T1 sequence (P10275 1-920): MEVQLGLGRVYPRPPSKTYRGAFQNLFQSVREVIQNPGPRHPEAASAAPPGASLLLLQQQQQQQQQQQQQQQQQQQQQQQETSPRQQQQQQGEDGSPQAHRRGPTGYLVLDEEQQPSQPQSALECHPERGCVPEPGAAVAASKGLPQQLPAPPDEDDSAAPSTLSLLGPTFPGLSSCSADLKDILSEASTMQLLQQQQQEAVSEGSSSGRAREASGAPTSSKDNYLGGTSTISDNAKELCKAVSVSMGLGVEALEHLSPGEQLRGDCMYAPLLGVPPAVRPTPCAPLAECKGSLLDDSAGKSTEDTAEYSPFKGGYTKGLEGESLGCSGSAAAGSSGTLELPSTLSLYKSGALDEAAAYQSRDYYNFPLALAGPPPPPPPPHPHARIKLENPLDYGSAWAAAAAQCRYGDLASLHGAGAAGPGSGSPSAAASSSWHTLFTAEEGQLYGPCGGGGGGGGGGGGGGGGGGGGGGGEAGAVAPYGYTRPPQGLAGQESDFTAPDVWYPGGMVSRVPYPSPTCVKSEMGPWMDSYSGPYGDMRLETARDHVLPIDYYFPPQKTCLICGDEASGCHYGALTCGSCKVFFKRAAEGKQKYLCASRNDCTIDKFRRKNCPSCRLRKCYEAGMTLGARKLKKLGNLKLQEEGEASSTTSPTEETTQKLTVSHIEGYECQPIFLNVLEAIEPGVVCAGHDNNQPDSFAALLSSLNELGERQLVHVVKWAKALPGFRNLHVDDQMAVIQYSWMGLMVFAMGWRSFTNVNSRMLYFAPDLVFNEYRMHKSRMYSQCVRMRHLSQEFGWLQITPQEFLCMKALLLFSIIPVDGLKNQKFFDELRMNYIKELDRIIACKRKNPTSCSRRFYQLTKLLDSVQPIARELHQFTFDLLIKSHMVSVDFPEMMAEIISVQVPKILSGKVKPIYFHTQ
The assay is described as follows: Antagonism of compounds on nuclear translocation of androgen receptor (PathHunter NHR cell lines). The format is cell-based. The note with it: antagonist mode, agonist 6a-Fluorotestosterone 0.06 μM (EC80). The protocol: Example 75 Test of Antagonism of Compounds on Nuclear Translocation of Androgen Receptor (AR)
1. PathHunter NHR cell lines were recovered and cultured for amplification.
2. The cells were inoculated onto a 384-well plate prior to testing, and incubated at 37° C. The serum for culture was filtered with charcoal-dextran to reduce the hormone level therein.
3. In the detection of the antagonistic function, a compound was added to the cells and incubated for 60 min. The working concentration of the test compound was diluted from 10 μM at a 3-fold concentration gradient, respectively including: […]. Then, an agonist 6a-Fluorotestosterone 0.06 μM (concentration: EC80, i.e., 80% agonistic compound concentration) was added, and the mixture was incubated at 37° C. or at room temperature for 3-16 h.
4. Signal detection: 12.5 μL or 15 μL (50%, v/v) PathHunter detection mixed solution (kit: DiscoverX product catalog number: 93-0001 series) was added, and incubated at room temperature for 1 h. The chemiluminescent signal was read with a PerkinElmer Envision™ instrument.
5. Data analysis: The compound activity was analyzed with CBIS data analysis software (ChemInnovation, CA). The calculation formula of the inhibition percent of the antagonist is as follows: IC50 inhibition ratio (%)=[…]×(1−(average RLU value of the test compound−average RLU value of the blank control group)/(average RLU value of EC80 control group−average RLU value of the blank control group)).
For the compound `CNc1ncnc2cc(N3C(=S)N(c4ccc(C#N)c(C(F)(F)F)c4)C(=O)C3(C)C)ccc12` [Compound 1], the IC50 (in general, the midpoint of a concentration-inhibition curve) was > 10 µM.
Then `CNC(=O)c1ccc(-n2c(=S)n(-c3ccc(C#N)c(C(F)(F)F)c3)c3ncccc32)cc1F` [Compound 2], with > 10 µM; and `CNC(=O)c1ccc(-n2c(=S)n(-c3ccc(C#N)c(C(F)(F)F)c3)c3nccc(C)c32)cc1F` [Compound 3], with 1.4 µM; and `CCN1CCOc2cc(N3C(=O)N(c4ccc(C#N)c(C(F)(F)F)c4)C(=O)C3(C)C)ccc2C1=O` [Compound 4], with 2.19 µM.
Then `CC1(C)C(=O)N(c2ccc(C#N)c(C(F)(F)F)c2)C(=S)N1c1ccc2c(=O)n(CC(F)(F)F)cnc2c1` [Compound 5], with 3.65 µM; and `CC1(C)C(=O)N(c2ccc(C#N)c(C(F)(F)F)c2)C(=S)N1c1ccc2c(=O)n(CC(F)(F)F)ncc2c1` [Compound 6], with 3.07 µM; and `CC1(C)C(=O)N(c2ccc(C#N)c(C(F)(F)F)c2)C(=S)N1c1ccc2c(cnn2C2COCC2O)c1` (centres unmarked) [Compound 7], with 4.26 µM.
Then `CC1(C)C(=O)N(c2ccc(C#N)c(C(F)(F)F)c2)C(=S)N1c1ccc2nn(C3COCC3O)cc2c1` (centres unmarked) [Compound 8], with 4.27 µM; and `Cc1nc(OCCO)c2cc(N3C(=S)N(c4ccc(C#N)c(C(F)(F)F)c4)C(=O)C3(C)C)ccc2n1` [Compound 9], with 5.35 µM; and `CC1(C)C(=O)N(c2ccc(C#N)c(C(F)(F)F)c2)C(=S)N1c1ccc2nc(C3CC3)nc(OCCO)c2c1` [Compound 11], with 1.14 µM.
Consider `CC1(C)C(=O)N(c2ccc(C#N)c(C(F)(F)F)c2)C(=S)N1c1ccc2ncnc(OCCO)c2c1` [Compound 12], for which the IC50 came out at 3.26 µM.
The result for `CC1(C)C(=O)N(c2ccc(C#N)c(C(F)(F)F)c2)C(=S)N1c1cc(F)c2ncnc(OCCO)c2c1` [Compound 13] reads 6.02 µM.
`CC1(C)C(=O)N(c2ccc(C#N)c(C(F)(F)F)c2)C(=S)N1c1ccc2nc(OCCO)ncc2c1` [Compound 14] had an IC50 of 4.9 µM.
The result for `CC1(C)C(=O)N(c2ccc(C#N)c(C(F)(F)F)c2)C(=S)N1c1ccc2nc(C(F)F)nc(OCCO)c2c1` [Compound 15] reads 1.12 µM.
For `CNc1nc(OCCO)c2cc(N3C(=S)N(c4ccc(C#N)c(C(F)(F)F)c4)C(=O)C3(C)C)ccc2n1` [Compound 16], the IC50 is 3.91 µM.
Then `CCc1nc(OCCO)c2cc(N3C(=S)N(c4ccc(C#N)c(C(F)(F)F)c4)C(=O)C34CCC4)ccc2n1` [Compound 17], with 0.65 µM; and `CC1(C)C(=O)N(c2ccc(C#N)c(C(F)(F)F)c2)C(=S)N1c1cc(F)c2nc(C3CC3)nc(OCCO)c2c1` [Compound 18], with 2.84 µM; and `CCc1nc(OC2CCOCC2)c2cc(N3C(=S)N(c4ccc(C#N)c(C(F)(F)F)c4)C(=O)C3(C)C)cc(F)c2n1` [Compound 19], with 1.86 µM.
Then `CCc1nc(OCCO)c2cc(N3C(=S)N(c4ccc(C#N)c(C(F)(F)F)c4)C(=O)C34CCC4)cc(F)c2n1` [Compound 20], with 1.56 µM; and `CC1(C)C(=O)N(c2ccc(C#N)c(C(F)(F)F)c2)C(=S)N1c1cc(F)c2nc(C(F)F)nc(OCCO)c2c1` [Compound 21], with 1.89 µM.
Then `CCc1nc(OCCCS(C)(=O)=O)c2cc(N3C(=S)N(c4ccc(C#N)c(C(F)(F)F)c4)C(=O)C3(C)C)cc(F)c2n1` [Compound 22], with 2.36 µM; and `CC1(C)C(=O)N(c2cnc(C#N)c(C(F)(F)F)c2)C(=S)N1c1cc(F)c2nc(C3CC3)nc(OCCO)c2c1` [Compound 23], with 1.15 µM; and `CCc1nc(OCCN(C)C)c2cc(N3C(=S)N(c4ccc(C#N)c(C(F)(F)F)c4)C(=O)C3(C)C)cc(F)c2n1` [Compound 24], with 3.1 µM.
As for `CCc1nc(OCCO)c2cc(N3C(=S)N(c4cnc(C#N)c(C(F)(F)F)c4)C(=O)C34CCC4)cc(F)c2n1` [Compound 25], the IC50 came out at 1.22 µM.
The result for `CC1(C)C(=O)N(c2cnc(C#N)c(C(F)(F)F)c2)C(=S)N1c1cc(F)c2nc(C(F)F)nc(OCCO)c2c1` [Compound 26] reads 1.71 µM; that for `CCc1nc(OCC(=O)NC)c2cc(N3C(=S)N(c4ccc(C#N)c(C(F)(F)F)c4)C(=O)C3(C)C)cc(F)c2n1` [Compound 28], 8.88 µM.
Then `CCc1nc(OCC2COC2)c2cc(N3C(=S)N(c4ccc(C#N)c(C(F)(F)F)c4)C(=O)C3(C)C)cc(F)c2n1` [Compound 29], with 0.83 µM; and `CCc1cc(=O)n2cc(N3C(=S)N(c4ccc(C#N)c(C(F)(F)F)c4)C(=O)C3(C)C)ccc2n1` [Compound 30], with 2.54 µM.
The compound `CCc1nc2ccc(N3C(=S)N(c4ccc(C#N)c(C(F)(F)F)c4)C(=O)C3(C)C)cn2c(=O)c1OC` [Compound 31] showed a half-maximal inhibitory concentration (IC50) of 3.8 µM.
The result for `CCc1nc(OCC(N)=O)c2cc(N3C(=S)N(c4ccc(C#N)c(C(F)(F)F)c4)C(=O)C3(C)C)cc(F)c2n1` [Compound 32] reads 6.76 µM; that for `CCc1nc2ccc(N3C(=S)N(c4ccc(C#N)c(C(F)(F)F)c4)C(=O)C3(C)C)cn2c(=O)c1O` [Compound 33], 9.58 µM.
The result for `CCc1nc2c(F)cc(N3C(=S)N(c4ccc(C#N)c(C(F)(F)F)c4)C(=O)C3(C)C)cn2c(=O)c1OC` [Compound 34] reads 3.23 µM; that for `CCc1nc(OCC2(O)CC2)c2cc(N3C(=S)N(c4ccc(C#N)c(C(F)(F)F)c4)C(=O)C3(C)C)cc(F)c2n1` [Compound 36], 5.65 µM.
The result for `CCc1nc2ccc(N3C(=S)N(c4ccc(C#N)c(C(F)(F)F)c4)C(=O)C3(C)C)cn2c(=O)c1OCCOC` [Compound 37] reads 4.47 µM.
The compound `CCc1nc2ccc(N3C(=S)N(c4ccc(C#N)c(C(F)(F)F)c4)C(=O)C3(C)C)cn2c(=O)c1OCCO` [Compound 38] registered an IC50 of 3.58 µM.
With `CCc1nc2c(F)cc(N3C(=S)N(c4ccc(C#N)c(C(F)(F)F)c4)C(=O)C3(C)C)cn2c(=O)c1O` [Compound 39], the IC50 was found to be 5.95 µM.
The result for `CCc1nc2c(F)cc(N3C(=S)N(c4ccc(C#N)c(C(F)(F)F)c4)C(=O)C3(C)C)cn2c(=O)c1OCCOC` [Compound 40] reads 2.15 µM; that for `CCc1nc2c(F)cc(N3C(=S)N(c4ccc(C#N)c(C(F)(F)F)c4)C(=O)C3(C)C)cn2c(=O)c1OCCO` [Compound 41], 2.75 µM; that for `CCc1nc2c(F)cc(N3C(=S)N(c4ccc(C#N)c(C(F)(F)F)c4)C(=O)C3(C)C)cn2c(=O)c1OCC(=O)NC` [Compound 42], 2.2 µM.
Then `CCc1nc2c(F)cc(N3C(=S)N(c4ccc(C#N)c(C(F)(F)F)c4)C(=O)C3(C)C)cn2c(=O)c1OCC(N)=O` [Compound 43], with 3.5 µM; and `CCc1nc(OC2COC[C@H]2O)c2cc(N3C(=S)N(c4ccc(C#N)c(C(F)(F)F)c4)C(=O)C3(C)C)cc(F)c2n1` (some centres unmarked) [Compound 44], with 3.76 µM.
On to `CCc1nc2c(F)cc(-n3c(=S)n(-c4ccc(C#N)c(C(F)(F)F)c4)c4nccc(C)c43)cc2c(=O)[nH]1` [Compound 45], for which the IC50 is 2.64 µM.
The compound `CCc1nc(OC2COC[C@@H]2O)c2cc(N3C(=S)N(c4ccc(C#N)c(C(F)(F)F)c4)C(=O)C3(C)C)cc(F)c2n1` (some centres unmarked) [Compound 46] registered an IC50 of 3.08 µM.
Take `CCc1nc2c(F)cc(N3C(=S)N(c4ccc(C#N)c(C(F)(F)F)c4)C(=O)C3(C)C)cn2c(=O)c1F` [Compound 47]: the IC50 stood at 2.57 µM.
As to `CCc1nc(OCCO)c2cc(N3C(=S)N(c4ccc(C#N)c(C(F)F)c4)C(=O)C3(C)C)ccc2n1` [Compound 48], the IC50 turned out to be 3.67 µM.
With `CC(F)(F)c1nc(OCCO)c2cc(N3C(=S)N(c4ccc(C#N)c(C(F)(F)F)c4)C(=O)C3(C)C)cc(F)c2n1` [Compound 49], the IC50 was 1.43 µM.
The result for `CCc1nc(OCCO)c2cc(N3C(=S)N(c4ccc(C#N)c(C(F)F)c4)C(=O)C3(C)C)cc(F)c2n1` [Compound 50] reads 3.45 µM.
